According to patent US10752617B2 (GALDERMA RESEARCH & DEVELOPMENT, priority 2014, dated 2020):

These compounds were tested against T1, GAL4-RORγ (GAL4 DBD fused to the ROR gamma ligand-binding domain) (Homo sapiens, UniProt P51449) (assay: GAL4-RORγ transactivation (luciferase reporter, HG5LN HeLa line)). Conditions: HG5LN HeLa cells, 18 hours incubation, luciferase luminescence, read-out: IC50 hRORg.
T1 construct: expressed in transfected cells; host or cells: HG5LN (HeLa line with GAL4-responsive luciferase reporter)
T1 sequence (P51449 269-508 limits assumed): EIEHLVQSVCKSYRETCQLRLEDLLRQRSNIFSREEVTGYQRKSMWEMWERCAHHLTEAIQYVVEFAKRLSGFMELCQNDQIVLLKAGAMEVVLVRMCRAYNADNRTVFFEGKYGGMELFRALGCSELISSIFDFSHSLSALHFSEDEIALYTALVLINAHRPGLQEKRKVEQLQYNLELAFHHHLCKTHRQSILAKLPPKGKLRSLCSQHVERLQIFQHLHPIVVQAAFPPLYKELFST
Type: cell-based
Excerpt: (§1) In the tables described above, the median inhibitory concentrations IC50 for the compounds belonging to formula (I) according to the invention have been given according to the following models:
GAL4-RORγ Transactivation
The RORγ transactivation model was developed from the line HG5LN, which is a HeLa line that stably expresses a luciferase reporter gene controlled by a pentamer of the GAL4 recognition domain of yeast and of a β-globin promoter. The HG5LN line was stably transfected by the DNA-binding domain (DBD) of GAL4 fused to the ROR gamma ligand-binding domain (LBD). Molecules that inhibit the ROR gamma constitutive activity reduce the luciferase expression, thus leading to a reduction in the emitted luminescence.
The cells are seeded in 384-well plates (5000 cells in 45 μL/well of culture medium containing 10% fetal calf serum) and incubated for 4 hours at 37° C., 5% CO2. 5 μL of the test molecules (compounds described in the tables described above) are then added to each well and the plates are incubated for 18 hours at a temperature of 37° C. under 5% of CO2. 20 μL of luciferase substrate (Promega) are added to each well and the luminescence emitted is read by a microplate reader.
The luminescence units (“RLU”) are normalized by positive controls (“POS” containing a saturated concentration of N-(2,2,2-trifluoroethyl)-N-[4-[2,2,2-trifluoro-1-hydroxy-1-(trifluoromethyl)ethyl]phenyl])benzenesulfonamide and negative controls (“NEG” containing DMSO): % inhibition=((RLU−NEG)*100)/(POS−NEG). The IC50 values are calculated from a 4-parameter logistic model using the XLFit software (IDBS).
CCc1ccc(N(CC(C)C)S(=O)(=O)c2ccc3c(cnn3CC3CCOCC3)c2)cc1 [Compound 39, N-(4-ethylphenyl)-N-isobutyl-1-((tetrahydro-2H-pyran-4-yl)methyl)-1H-indazole-5-sulfonamide] gave an IC50 of 100 to 1000 nM.
Work on CCc1ccc(N(CC(C)C)S(=O)(=O)c2ccc3c(cnn3CC3COC3)c2)cc1 [Compound 37, N-(4-ethylphenyl)-N-isobutyl-1-(oxetan-3-ylmethyl)-1H-indazole-5-sulfonamide] yielded an IC50 of 100 to 1000 nM.
CC(C)CN(c1cc(Cl)ccc1F)S(=O)(=O)c1ccc2c(cnn2CC2CCOCC2)c1 [Compound 10, 1-(tetrahydropyran-4-ylmethyl)-1H-indazole-5-sulfonic acid (5-chloro-2-fluorophenyl)isobutylamide] was tested, and the IC50 was greater than 1000 nM.
In the case of CCc1ccc(N(CC(C)C)S(=O)(=O)c2ccc3c(c2)c(OCC2CCOCC2)nn3CC2CCOCC2)cc1 [Compound 18, 3-(tetrahydropyran-4-ylmethoxy)-1-(tetrahydropyran-4-ylmethyl)-1H-indazole-5-sulfonic acid (4-ethylphenyl)isobutylamide], the IC50 is reported as greater than 1000 nM.
For CCc1ccc(N([C@H](C)CC)S(=O)(=O)c2ccc3c(cnn3CC3CCOCC3)c2)cc1 [Compound 2, 1-(tetrahydropyran-4-ylmethyl)-1H-indazole-5-sulfonic acid ((R)-sec-butyl)(4-ethylphenyl)amide], the IC50 was 100 to 1000 nM.
Compound CC(C)CN(c1ccccc1C(F)(F)F)S(=O)(=O)c1ccc2c(cnn2CC2CCOCC2)c1 [Compound 58, 1-(tetrahydropyran-4-ylmethyl)-1H-indazole-5-sulfonic acid isobutyl(2-trifluoromethylphenyl)amide] has an IC50 of 100 to 1000 nM.
For Cc1ccc(F)cc1N(CC(C)C)S(=O)(=O)c1ccc2c(cnn2CC2CCOCC2)c1 [Compound 42, 1-(tetrahydropyran-4-ylmethyl)-1H-indazole-5-sulfonic acid (5-fluoro-2-methylphenyl)isobutylamide], the IC50 was 100 to 1000 nM.
Cc1ccc(C)c(N(CC(C)C)S(=O)(=O)c2ccc3c(cnn3CC3CCOCC3)c2)c1 [Compound 11, 1-(tetrahydropyran-4-ylmethyl)-1H-indazole-5-sulfonic acid (2,5-dimethylphenyl)isobutylamide] was tested, and the IC50 was 100 to 1000 nM.
Compound Cc1ccc(N(CC(C)C)S(=O)(=O)c2ccc3c(cnn3CC3CCOCC3)c2)c(C)c1 [Compound 27, 1-(tetrahydropyran-4-ylmethyl)-1H-indazole-5-sulfonic acid (2,4-dimethylphenyl)isobutylamide] has an IC50 of 100 to 1000 nM.
CCc1ccc(N(CC(CO)CCl)S(=O)(=O)c2ccc3c(cnn3CC3CCOCC3)c2)cc1 (stereo not drawn) [Compound 60, 1-(tetrahydropyran-4-ylmethyl)-1H-indazole-5-sulfonic acid (3-chloro-2-hydroxymethylpropyl)(4-ethylphenyl)amide] gave an IC50 greater than 1000 nM.
In the case of COc1ccc(N(CC(C)C)S(=O)(=O)c2ccc3c(cnn3CC3CCOCC3)c2)c(C)c1 [Compound 55, 1-(tetrahydropyran-4-ylmethyl)-1H-indazole-5-sulfonic acid isobutyl(4-methoxy-2-methylphenyl)amide], the IC50 is reported as 100 to 1000 nM.
CCc1ccc(N(C2CCC2)S(=O)(=O)c2ccc3c(cnn3CC3CCOCC3)c2)cc1 [Compound 41, 1-(tetrahydropyran-4-ylmethyl)-1H-indazole-5-sulfonic acid cyclobutyl(4-ethylphenyl)amide] was tested, and the IC50 was greater than 1000 nM.
Work on CC(C)CN(c1ccc(C(F)(F)F)cc1)S(=O)(=O)c1ccc2c(cnn2CC2CCOCC2)c1 [Compound 59, 1-(tetrahydropyran-4-ylmethyl)-1H-indazole-5-sulfonic acid isobutyl(4-trifluoromethylphenyl)amide] yielded an IC50 greater than 1000 nM.
With CCc1ccc(N(CC2CCOC2)S(=O)(=O)c2ccc3c(cnn3CC3CCOCC3)c2)cc1 (stereo not drawn) [Compound 33, 1-(tetrahydropyran-4-ylmethyl)-1H-indazole-5-sulfonic acid (4-ethylphenyl)(tetrahydrofuran-3-ylmethyl)amide] the IC50 was greater than 1000 nM.
CCc1ccc(N(CC(C)C)S(=O)(=O)c2ccc3c(c2)c(CO)nn3CC2CCOCC2)cc1 [Compound 14, 3-hydroxymethyl-1-(tetrahydropyran-4-ylmethyl)-1H-indazole-5-sulfonic acid (4-ethylphenyl)isobutylamide] was tested, and the IC50 was greater than 1000 nM.
CCc1ccc(N(CC(C)C)S(=O)(=O)c2ccc3c(cnn3Cc3c(C)noc3C)c2)cc1 [Compound 6, 1-((3,5-dimethylisoxazol-4-yl)methyl)-N-(4-ethylphenyl)-N-isobutyl-1H-indazole-5-sulfonamide] showed an IC50 of 100 to 1000 nM.
With CCc1ccc(N(CC(C)C)S(=O)(=O)c2ccc3c(cnn3C3CCN(C(C)=O)C3)c2)cc1 (stereo not drawn) [Compound 17, 1-(1-acetylpyrrolidin-3-yl)-1H-indazole-5-sulfonic acid (4-ethylphenyl)isobutylamide] the IC50 was 100 to 1000 nM.
For CCc1ccc(N(CCC(C)C)S(=O)(=O)c2ccc3c(cnn3CC3CCOCC3)c2)cc1 [Compound 35, N-(4-ethylphenyl)-N-isopentyl-1-((tetrahydro-2H-pyran-4-yl)methyl)-1H-indazole-5-sulfonamide], the IC50 was greater than 1000 nM.
CCc1ccc(N(CC(C)C)S(=O)(=O)c2ccc3[nH]nc(OCC4CCOCC4)c3c2)cc1 [Compound 61, 3-(tetrahydropyran-4-ylmethoxy)-1H-indazole-5-sulfonic acid (4-ethylphenyl)isobutylamide] was tested, and the IC50 was greater than 1000 nM.
Cc1cc(C#N)ccc1N(CC(C)C)S(=O)(=O)c1ccc2c(cnn2CC2CCOCC2)c1 [Compound 57, 1-(tetrahydropyran-4-ylmethyl)-1H-indazole-5-sulfonic acid (4-cyano-2-methylphenyl)isobutylamide] showed an IC50 of 100 to 1000 nM.
For CCc1ccc(N(CC(C)C)S(=O)(=O)c2ccc3[nH]nc(N)c3c2)cc1 [Compound 34, 3-amino-1H-indazole-5-sulfonic acid (4-ethylphenyl)isobutylamide], the IC50 was greater than 1000 nM.
With CCc1ccc(N(CC2CCOCC2)S(=O)(=O)c2ccc3c(cnn3CC3CCOCC3)c2)cc1 [Compound 5, 1-(tetrahydropyran-4-ylmethyl)-1H-indazole-5-sulfonic acid (4-ethylphenyl)(tetrahydropyran-4-ylmethyl)amide] the IC50 was greater than 1000 nM.
Work on Cc1ccc(N(CC(C)C)S(=O)(=O)c2ccc3c(cnn3CC3CCOCC3)c2)cc1 [Compound 47, 1-(tetrahydropyran-4-ylmethyl)-1H-indazole-5-sulfonic acid isobutyl-p-tolylamide] yielded an IC50 greater than 1000 nM.
CCc1ccc(N(CC2CC2)S(=O)(=O)c2ccc3c(cnn3CC3CCOCC3)c2)cc1 [Compound 31, N-(cyclopropylmethyl)-N-(4-ethylphenyl)-1-((tetrahydro-2H-pyran-4-yl)methyl)-1H-indazole-5-sulfonamide] was tested, and the IC50 was greater than 1000 nM.
Compound CCc1ccc(N(C2CCCC2)S(=O)(=O)c2ccc3c(cnn3CC3CCOCC3)c2)cc1 [Compound 32, 1-(tetrahydropyran-4-ylmethyl)-1H-indazole-5-sulfonic acid cyclopentyl(4-ethylphenyl)amide] has an IC50 of less than 100 nM.
Compound CCc1ccc(N(CC(C)C)S(=O)(=O)c2ccc3c(cnn3Cc3ccccc3)c2)cc1 [Compound 23, 1-benzyl-N-(4-ethylphenyl)-N-isobutyl-1H-indazole-5-sulfonamide] has an IC50 greater than 1000 nM.
With Cc1cccc(N(CC(C)C)S(=O)(=O)c2ccc3c(cnn3CC3CCOCC3)c2)c1 [Compound 26, 1-(tetrahydropyran-4-ylmethyl)-1H-indazole-5-sulfonic acid (3-methylphenyl)isobutylamide] the IC50 was greater than 1000 nM.
Work on CCc1ccc(N(CC(C)C)S(=O)(=O)c2ccc3c(Br)nn(C4CCCCO4)c3c2)cc1 (stereo not drawn) [Compound 4, 3-bromo-1-(tetrahydropyran-2-yl)-1H-indazole-6-sulfonic acid (4-ethylphenyl)isobutylamide] yielded an IC50 greater than 1000 nM.

Each compound was assayed on IL-17A secretion by CD4+ cells (assay: IL-17A secretion by activated CD4+ cells (HTRF)). Conditions: 96 h; human CD4+ cells activated with anti-CD3 and anti-CD28, 4 days of incubation, inhibitors 1000 nM to 0.05 nM; read-out: IC50 hCD4/IL17.
Type: cell-based
Procedure: as §1
This model allows measurement of the effect of inhibitors on IL-17A secretion by CD4+ cells. The cells are frozen CD4+ cells (STEMCELL, #70026), isolated from peripheral human blood and activated with anti-CD3 and anti-CD28 antibodies. The amount of IL-17a secreted is measured by the TR-FRET (kit HTRF® Human Interleukin 17A (Cisbio, #64H17PEC)) technology.
The cells are rapidly thawed, resuspended in their culture medium (RPMI inactivated 10% FCS) supplemented with soluble anti-CD28 antibodies and seeded (100 000 cells/well) in 96-well plates precoated with anti-CD3 antibodies. The cells are then treated with the ranges of inhibitors to be tested (from 1000 nM to 0.05 nM, 0.1% DMSO). After 4 days of incubation, the HTRF signal is measured using a microplate reader (λexcitation=337 nm, λemission=620/665 nm). The ratios obtained (665/620) are normalized relative to the positive control (cells activated with anti-CD3 and anti-CD28, 0.1% DMSO). The IC50 values are calculated from a 4-parameter logistic model using the XLFit software (IDBS).
Work on CCc1ccc(N(CC(C)C)S(=O)(=O)c2ccc3c(cnn3CC3CCOCC3)c2)cc1 [Compound 39, N-(4-ethylphenyl)-N-isobutyl-1-((tetrahydro-2H-pyran-4-yl)methyl)-1H-indazole-5-sulfonamide] yielded an IC50 of 100 to 1000 nM.
Work on CCc1ccc(N(CC(C)C)S(=O)(=O)c2ccc3c(cnn3CC3COC3)c2)cc1 [Compound 37, N-(4-ethylphenyl)-N-isobutyl-1-(oxetan-3-ylmethyl)-1H-indazole-5-sulfonamide] yielded an IC50 of less than 100 nM.
